Measurements taken from PubChem BioAssay AID1259408 (Genetic Toxicology Data Bank (GENE-TOX), 2018).
Activity calls are given as the source filed them. How the calls were made is not given here.

Tested on: GENE-TOX genotoxicity assays, various organisms and cells
Assay: GENE-TOX mutagenicity studies
Details: for call: Assay Type: In vivo carcinogenicity studies
[1] = Species/Cell Type: Nonhuman, Assay Code: CCGT, Evaluation Type: Evaluation A (Pre-1980)
[2] = Species/Cell Type: Nonhuman, Assay Type: Sister-chromatid exchange (SCE) in vitro, Assay Code: SC2+D, Dose Response: With dose response, Evaluation Type: Evaluation A (Pre-1980)
[3] = Species/Cell Type: Saccharomyces cerevisiae, Assay Type: Mitotic recombination or gene conversion, Assay Code: YEC+, Evaluation Type: Evaluation A (Pre-1980)
[4] = Species/Cell Type: Fischer rat embryo (RLV/1706) cells, Assay Type: Cell transformation, viral enhanced, Assay Code: CTR+, Evaluation Type: Evaluation A (Pre-1980)
[5] = Species/Cell Type: Human diploid fibroblasts, Assay Type: Unscheduled DNA synthesis (UDS) in vitro, DNA effects, Assay Code: UDHT, Evaluation Type: Evaluation A (Pre-1980)
[6] = Species/Cell Type: Human lymphocytes, Assay Type: Sister-chromatid exchange (SCE) in vitro, Assay Code: SCL+D, Dose Response: With dose response, Evaluation Type: Evaluation B (Post-1980)
[7] = Species/Cell Type: Human, Assay Type: Sister-chromatid exchange (SCE) in vitro, Assay Code: SC1+D, Dose Response: With dose response, Evaluation Type: Evaluation B (Post-1980)
[8] = Species/Cell Type: Mammalian polychromatic erythrocytes, Assay Type: Micronucleus test, chromosome aberrations, Assay Code: MNT+, Evaluation Type: Evaluation A (Pre-1980)
[9] = Species/Cell Type: Nonhuman, Assay Code: CCG+, Evaluation Type: Evaluation A (Pre-1980)
[10] = Species/Cell Type: Salmonella typhimurium (one or more of the five standard strains: TA98, TA100, TA1535, TA1537, and TA1538), Assay Type: Histidine reverse gene mutation, Ames assay, Assay Code: SAL-, Evaluation Type: Evaluation A (Pre-1980)
[11] = Species/Cell Type: Salmonella typhimurium (one or more of the five standard strains: TA98, TA100, TA1535, TA1537, and TA1538), Assay Type: Histidine reverse gene mutation, Ames assay, Assay Code: SAL+*, Activation: With metabolic activation, Evaluation Type: Evaluation A (Pre-1980)
[12] = Species/Cell Type: Nonhuman, Assay Type: Sister-chromatid exchange (SCE) in vitro, Assay Code: SC2T, Evaluation Type: Evaluation B (Post-1980)

Question: For `Nc1ccc2cc3ccc(N)cc3nc2c1`, which mutagenic call (Species/Cell Type: Drosophila melanogaster, Assay Type: Aneuploidy, sex chromosome gain, chromosome aberrations, Assay Code: DAGT, Evaluation Type: Evaluation A (Pre-1980)) is on record?
Answer: The mutagenic call was “no conclusion”.

Question: And the mutagenic call (Species/Cell Type: Drosophila melanogaster, Assay Type: Aneuploidy, whole sex chromosome loss, chromosome aberrations, Assay Code: DAC+F, Evaluation Type: Evaluation A (Pre-1980))?
Answer: Its mutagenic call is “active; positive”.

Question: What about the mutagenic call (Species/Cell Type: Escherichia coli polA (W3119 vs P3478), Assay Type: Rec-assay, DNA effects (bacterial DNA repair), Assay Code: RE1+, Evaluation Type: Evaluation A (Pre-1980)) of the same compound?
Answer: Its mutagenic call is “active; positive”.

Question: And the mutagenic call (Species/Cell Type: Human lymphocytes, Assay Type: Sister-chromatid exchange (SCE) in vitro, Assay Code: SCL+, Evaluation Type: Evaluation B (Post-1980))?
Answer: The mutagenic call was “active; positive”.

Question: What about the mutagenic call (Species/Cell Type: Human, Assay Type: Sister-chromatid exchange (SCE) in vitro, Assay Code: SC1+, Evaluation Type: Evaluation B (Post-1980)) of the same compound?
Answer: The mutagenic call was “active; positive”.

Question: What about the mutagenic call (Species/Cell Type: Mouse lymphoma (L5178Y) cells, Assay Type: Forward gene mutation at the thymidine kinase (TK) locus, chromosome aberrations, Assay Code: L51+, Evaluation Type: Evaluation A (Pre-1980)) of the same compound?
Answer: Its mutagenic call is “active; positive”.

Question: What about the call [1] of the same compound?
Answer: The call was “no conclusion”.

Question: What about the mutagenic call (Species/Cell Type: Nonhuman, Assay Type: Sister-chromatid exchange (SCE) in vitro, Assay Code: SC2+, Evaluation Type: Evaluation B (Post-1980)) of the same compound?
Answer: The mutagenic call was “active; positive”.

Question: What about the mutagenic call [2] of the same compound?
Answer: The mutagenic call was “active; positive”.

Question: And the mutagenic call (Species/Cell Type: Nonhuman, Assay Type: Sister-chromatid exchange (SCE) in vivo, Assay Code: SC3-, Evaluation Type: Evaluation A (Pre-1980))?
Answer: The mutagenic call was “inactive; negative”.

Question: What about the mutagenic call (Species/Cell Type: Nonhuman, Assay Type: Sister-chromatid exchange (SCE) in vivo, Assay Code: SC3T, Evaluation Type: Evaluation B (Post-1980)) of the same compound?
Answer: The mutagenic call was “no conclusion”.

Question: What about the mutagenic call [3] of the same compound?
Answer: Its mutagenic call is “active; positive”.

Question: And the mutagenic call (Species/Cell Type: Saccharomyces cerevisiae, Assay Type: Mitotic recombination or gene conversion, Assay Code: YECT, Evaluation Type: Evaluation A (Pre-1980))?
Answer: The mutagenic call was “no conclusion”.

Question: And the mutagenic call (Species/Cell Type: Salmonella typhimurium (one or more of the five standard strains: TA98, TA100, TA1535, TA1537, and TA1538), Assay Type: Histidine reverse gene mutation, Ames assay, Assay Code: SAL+, Evaluation Type: Evaluation A (Pre-1980))?
Answer: The mutagenic call was “active; positive”.

Question: What does the source list for `CCOC(N)=O`?
Answer: mutagenic call (Species/Cell Type: Drosophila melanogaster, Assay Type: Aneuploidy, sex chromosome gain, chromosome aberrations, Assay Code: DAG-M, Evaluation Type: Evaluation A (Pre-1980)): inactive; negative; mutagenic call (Species/Cell Type: Drosophila melanogaster, Assay Type: Aneuploidy, whole sex chromosome loss, chromosome aberrations, Assay Code: DAC+M, Evaluation Type: Evaluation A (Pre-1980)): active; positive; mutagenic call (Species/Cell Type: Drosophila melanogaster, Assay Type: Sex-linked recessive lethal gene mutation, Assay Code: SRL+, Evaluation Type: Evaluation A (Pre-1980)): active; positive; mutagenic call (Species/Cell Type: Drosophila melanogaster, Sex: Male, Assay Type: Heritable translocation test, chromosome aberrations, Assay Code: DHT+, Evaluation Type: Evaluation A (Pre-1980)): active; positive; mutagenic call (Species/Cell Type: Escherichia coli WP2, Assay Type: Tryptophan reverse gene mutation, Assay Code: WP2-, Evaluation Type: Evaluation A (Pre-1980)): inactive; negative; mutagenic call (Species/Cell Type: Escherichia coli polA (W3110 vs P3478), Assay Type: Rec-assay, DNA effects (bacterial DNA repair), Assay Code: RE2-, Evaluation Type: Evaluation A (Pre-1980)): inactive; negative; mutagenic call (Species/Cell Type: Escherichia coli polA (W3119 vs P3478), Assay Type: Rec-assay, DNA effects (bacterial DNA repair), Assay Code: RE1T, Evaluation Type: Evaluation A (Pre-1980)): no conclusion; mutagenic call [4]: active; positive; mutagenic call [5]: no conclusion; mutagenic call [6]: active; positive; mutagenic call [7]: active; positive; mutagenic call [8]: active; positive; mutagenic call (Species/Cell Type: Mouse embryo (AKR/ME) cells, Assay Type: Cell transformation, Assay Code: CTK+, Evaluation Type: Evaluation A (Pre-1980)): active; positive; mutagenic call (Species/Cell Type: Mouse, Sex: Male, Assay Type: Sperm morphology, Assay Code: SPI-, Evaluation Type: Evaluation A (Pre-1980)): inactive; negative; mutagenic call (Species/Cell Type: Neurospora crassa, Assay Type: Reverse gene mutation, Assay Code: NER+, Evaluation Type: Evaluation A (Pre-1980)): active; positive; call [9]: active; positive; mutagenic call [2]: active; positive; mutagenic call (Species/Cell Type: Nonhuman, Assay Type: Sister-chromatid exchange (SCE) in vivo, Assay Code: SC3+D, Dose Response: With dose response, Evaluation Type: Evaluation B (Post-1980)): active; positive; mutagenic call [3]: active; positive; mutagenic call (Species/Cell Type: Saccharomyces cerevisiae, Assay Type: Mitotic recombination or gene conversion, Assay Code: YEH-*, Activation: With metabolic activation, Evaluation Type: Evaluation A (Pre-1980)): inactive; negative; mutagenic call [10]: inactive; negative; mutagenic call (Species/Cell Type: Salmonella typhimurium, Assay Type: Forward and reverse gene mutation, host-mediated assay, Assay Code: HMA-, Evaluation Type: Evaluation A (Pre-1980)): inactive; negative; mutagenic call (Species/Cell Type: Syrian hamster embryo (SHE) cells, Assay Type: Cell transformation, clonal assay, Assay Code: CTC+*, Activation: With metabolic activation, Evaluation Type: Evaluation A (Pre-1980)): active; positive

Question: With `Cc1c2c(c(CO)c3ccccc13)[C@H](O)[C@@H](O)c1ccccc1-2` as the compound, how does the mutagenic call (Species/Cell Type: Chinese hamster lung (V79) cells, Assay Type: Forward gene mutation at the HPRT or ouabain locus, Assay Code: V79-*, Activation: With metabolic activation, Evaluation Type: Evaluation A (Pre-1980)) read?
Answer: Its mutagenic call is “inactive; negative”.

Question: And the call [1]?
Answer: Its call is “no conclusion”.

Question: How did the mutagenic call [4] turn out when `Cc1cc(-c2ccc(N)c(C)c2)ccc1N` was run?
Answer: Its mutagenic call is “active; positive”.

Question: And the mutagenic call [5]?
Answer: The mutagenic call was “no conclusion”.

Question: What about the mutagenic call [8] of the same compound?
Answer: Its mutagenic call is “active; positive”.

Question: What about the call [9] of the same compound?
Answer: The call was “active; positive”.

Question: And the mutagenic call (Species/Cell Type: Nonhuman, Assay Type: Sister-chromatid exchange (SCE) in vitro, Assay Code: SC2+D, Dose Response: With dose response, Evaluation Type: Evaluation B (Post-1980))?
Answer: The mutagenic call was “active; positive”.

Question: And the mutagenic call [11]?
Answer: The mutagenic call was “active; positive”.

Question: How did the mutagenic call [8] turn out when `Nc1nc(N)c2nc(CNc3ccc(C(=O)N[C@@H](CCC(=O)O)C(=O)O)cc3)cnc2n1` was run?
Answer: The mutagenic call was “active; positive”.

Question: What about the mutagenic call (Species/Cell Type: Mouse, Sex: Male, Assay Type: Sperm morphology, Assay Code: SPI+, Evaluation Type: Evaluation A (Pre-1980)) of the same compound?
Answer: Its mutagenic call is “active; positive”.

Question: What about the mutagenic call (Species/Cell Type: Neurospora crassa, Assay Type: Aneuploidy, chromosome aberrations, Assay Code: NEN-, Evaluation Type: Evaluation A (Pre-1980)) of the same compound?
Answer: The mutagenic call was “inactive; negative”.

Question: What about the mutagenic call (Species/Cell Type: Saccharomyces cerevisiae, Assay Type: Mitotic recombination or gene conversion, Assay Code: YEH+, Evaluation Type: Evaluation A (Pre-1980)) of the same compound?
Answer: The mutagenic call was “active; positive”.

Question: Which results are given for `CCOP(=O)(OCC)Oc1nc(Cl)c(Cl)cc1Cl`?
Answer: mutagenic call [12]: no conclusion; mutagenic call (Species/Cell Type: Nonhuman, Assay Type: Sister-chromatid exchange (SCE) in vivo, Assay Code: SC3-, Evaluation Type: Evaluation B (Post-1980)): inactive; negative

Question: With `Nc1ccc2nc[nH]c2c1` as the compound, how does the mutagenic call (Species/Cell Type: Aspergillus nidulans, Assay Type: Aneuploidy, chromosome aberrations, Assay Code: ASN-, Evaluation Type: Evaluation A (Pre-1980)) read?
Answer: The mutagenic call was “inactive; negative”.

Question: With `O=[Si]=O` as the compound, how does the mutagenic call [12] read?
Answer: Its mutagenic call is “no conclusion”.

Question: For `Cc1cc(C)cc(C2CO2)c1` (stereo unspecified), which mutagenic call [6] is on record?
Answer: The mutagenic call was “active; positive”.

Question: And the mutagenic call [7]?
Answer: Its mutagenic call is “active; positive”.

Question: With `Cc1cc(Cl)cc2c1C(=O)/C(=C1\Sc3cc(Cl)cc(C)c3C1=O)S2` as the compound, how does the mutagenic call [10] read?
Answer: The mutagenic call was “inactive; negative”.

Question: Which mutagenic call (Species/Cell Type: Bacillus subtilis (H17 vs M45T), Assay Type: Rec-assay, spot test, DNA effects (bacterial DNA repair), Assay Code: REXT, Evaluation Type: Evaluation A (Pre-1980)) does the source give for `CN[C@@H]1[C@H](O[C@H]2[C@H](O[C@H]3[C@H](O)[C@@H](O)[C@H](N=C(N)N)[C@@H](O)[C@@H]3N=C(N)N)O[C@@H](C)[C@]2(O)C=O)O[C@@H](CO)[C@H](O)[C@H]1O` here?
Answer: The mutagenic call was “no conclusion”.

Question: And the mutagenic call (Species/Cell Type: Drosophila melanogaster, Assay Type: Sex-linked recessive lethal gene mutation, Assay Code: SRLT, Evaluation Type: Evaluation A (Pre-1980))?
Answer: Its mutagenic call is “no conclusion”.

Question: And the mutagenic call (Species/Cell Type: Escherichia coli polA (W3119 vs P3478), Assay Type: Rec-assay, DNA effects (bacterial DNA repair), Assay Code: RE1-, Evaluation Type: Evaluation A (Pre-1980))?
Answer: Its mutagenic call is “inactive; negative”.

Question: And the mutagenic call (Species/Cell Type: Vicia faba, Assay Type: Chromosome aberrations, Assay Code: VIC+, Evaluation Type: Evaluation A (Pre-1980))?
Answer: The mutagenic call was “active; positive”.

Question: `CCCCCCCCCC(=O)OCCCN1CCN(C2Cc3ccccc3Sc3ccc(SC)cc32)CC1` (stereo unspecified) was tested. Which mutagenic call (Species/Cell Type: Rodents, Sex: Male, Assay Type: Dominant lethal test, Assay Code: DLT-, Evaluation Type: Evaluation A (Pre-1980)) did it give?
Answer: The mutagenic call was “inactive; negative”.

Question: What does the source list for `COc1ccc(CCN2CCC(Nc3nc4ccccc4n3Cc3ccc(F)cc3)CC2)cc1`?
Answer: mutagenic call (Species/Cell Type: Human lymphocytes, Assay Type: Sister-chromatid exchange (SCE) in vitro, Assay Code: SCLT, Evaluation Type: Evaluation B (Post-1980)): no conclusion; mutagenic call (Species/Cell Type: Human, Assay Type: Sister-chromatid exchange (SCE) in vitro, Assay Code: SC1T, Evaluation Type: Evaluation B (Post-1980)): no conclusion; mutagenic call (Species/Cell Type: Mammalian polychromatic erythrocytes, Assay Type: Micronucleus test, chromosome aberrations, Assay Code: MNT-, Evaluation Type: Evaluation B (Post-1980)): inactive; negative

Question: `CC(C)OC(=O)Nc1ccccc1` was tested. Which mutagenic call (Species/Cell Type: Vicia faba, Assay Type: Chromosome aberrations, Assay Code: VIC+D, Dose Response: With dose response, Evaluation Type: Evaluation A (Pre-1980)) did it give?
Answer: The mutagenic call was “active; positive”.

Question: Which mutagenic call [11] does the source give for `c1ccc2c(c1)ccc1ncccc12` here?
Answer: The mutagenic call was “active; positive”.
